From patent US20130029970A1 (priority 2009, published 2013)
Where two headings read alike, the source gives them in different places.

Key:
[1] = biological target: T1, human CB2 receptors (Homo sapiens, UniProt P34972); test: cAMP assay in HEK-293 cells, hCB2 agonist; format: cell-based; settings: for hCB2 EC50 (cAMP ag, nM): inhibition of forskolin-stimulated cAMP, HEK-293 cells
T1 construct: (cDNA clone) CNR0200000
Procedure: (§1) Functional assays which monitor G-protein coupled receptor or downstream cellular responses can be used to characterize potential CB1 receptor and/or CB2 receptor agonist or antagonist activities. Direct activation (or inhibition of activation) can be monitored using a GTPγS assay (membrane-based assay) or cAMP assay (whole cell-based assay).
cAMP assays were performed in HEK-293 cells stably expressing human CB1 or CB2 receptors. […] Cells suspensions were centrifuged and the cells were washed once with PBS, were centrifuged again, and the cells were re-suspended in HBSS (Hank's Balanced Salt Solution, Cellgro, Cat #21-022-CV) solution containing 10 mM HEPES and 0.1% fatty acid free BSA (Sigma, Cat #A0281). Cell suspensions were prepared at 1,500,000 cells per ml. Stock solutions of test substances (10 mM) in DMSO were diluted to 1 mM using 30% DMSO as diluent. Test substances of solutions (1 mM) were further diluted down to 3× of final assay concentrations in the above HBSS buffer containing 0.1% BSA in the presence of 90 uM forskolin (Sigma Cat#F6886). To perform the assay, 20 uL of cell suspension (1,500,000 cells/mL) were added to each well in 96 well plate and treated with 10 uL test substance solution diluted as described above. Cells and compounds were incubated at 37° C. for 30 minutes. Cells were lysed and cAMP concentration was measured using DiscoveRx −XS+ cAMP assay kit (DiscoveRx Corporation Ltd., Fremont, Calif., USA, Cat #90-0075-03), following the manufacturer's protocol. GraphPad Prism software was used to calculate EC50 values using sigmoidal dose response curve fitting. The maximal amount of cAMP produced by forskolin was defined as 100%.

[2] = biological target: T2, human CB1 receptors (Homo sapiens, UniProt P21554); test: cAMP assay in HEK-293 cells, hCB1 agonist; format: cell-based; settings: inhibition of forskolin-stimulated cAMP, HEK-293 cells
T2 construct: (cDNA clone) CNR01L000
T2 sequence (P21554 whole entry): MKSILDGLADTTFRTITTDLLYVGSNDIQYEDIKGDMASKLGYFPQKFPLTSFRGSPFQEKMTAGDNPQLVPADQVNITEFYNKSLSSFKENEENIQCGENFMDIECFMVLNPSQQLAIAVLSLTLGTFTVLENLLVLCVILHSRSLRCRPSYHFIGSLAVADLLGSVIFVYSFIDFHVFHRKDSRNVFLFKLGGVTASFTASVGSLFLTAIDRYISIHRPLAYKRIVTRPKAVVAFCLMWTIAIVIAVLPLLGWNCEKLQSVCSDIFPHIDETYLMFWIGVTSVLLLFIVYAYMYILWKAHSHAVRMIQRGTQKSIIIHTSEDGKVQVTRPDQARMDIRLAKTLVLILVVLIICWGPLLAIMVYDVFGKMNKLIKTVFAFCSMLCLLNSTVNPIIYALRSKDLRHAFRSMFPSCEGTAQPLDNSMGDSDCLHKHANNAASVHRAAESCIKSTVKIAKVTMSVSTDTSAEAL
From the text: (§2) Stable, HEK-293-derived cell lines that recombinantly express hCBI or hCB2 were established. In brief, the clone hCB1 (CNR IL) or hCB2 (CNR2) was transfected into human embryonic kidney cells (HEK-293) using Lipofectamine 2000 (Gibco, Cat#11668-019) according to the manufacturer's protocol. Transfected clones were isolated by single colony purification and clones were screened for receptor expression using a whole cell, ^3H—CP 55,940 radioligand binding assay. HEK-293 stable cells were maintained in Dulbecco's modified Eagles medium (DMEM) containing 10% fetal bovine serum, 2 mM L-glutamine and 0.5 mg/mL G-418.
as §1
cAMP assays were performed in HEK-293 cells stably expressing human CB1 or CB2 receptors. For cannabinoid receptor functional assays measuring agonist effects on cellular cAMP levels, monolayers of cultured cells were harvested with enzyme-free PBS-based cell dissociation buffer (Gibco, Cat#13151-04). Cells suspensions were centrifuged and the cells were washed once with PBS, were centrifuged again, and the cells were re-suspended in HBSS (Hank's Balanced Salt Solution, Cellgro, Cat #21-022-CV) solution containing 10 mM HEPES and 0.1% fatty acid free BSA (Sigma, Cat #A0281). Cell suspensions were prepared at 1,500,000 cells per ml. Stock solutions of test substances (10 mM) in DMSO were diluted to 1 mM using 30% DMSO as diluent. Test substances of solutions (1 mM) were further diluted down to 3× of final assay concentrations in the above HBSS buffer containing 0.1% BSA in the presence of 90 uM forskolin (Sigma Cat#F6886). To perform the assay, 20 uL of cell suspension (1,500,000 cells/mL) were added to each well in 96 well plate and treated with 10 uL test substance solution diluted as described above. Cells and compounds were incubated at 37° C. for 30 minutes. Cells were lysed and cAMP concentration was measured using DiscoveRx −XS+ cAMP assay kit (DiscoveRx Corporation Ltd., Fremont, Calif., USA, Cat #90-0075-03), following the manufacturer's protocol. GraphPad Prism software was used to calculate EC50 values using sigmoidal dose response curve fitting. The maximal amount of cAMP produced by forskolin was defined as 100%. CB1 or CB2 agonists reduced forskolin-stimulated cAMP signaling. The EC50 value of an agonist compound was defined as the concentration at which 50% of the forskolin-stimulated cAMP synthesis was inhibited.

[3] = biological target: T3, recombinant human cannabinoid receptor CB2 (Homo sapiens, UniProt P34972); test: Cannabinoid receptor radioligand binding assay, [3H]-CP 55,940 displacement, hCB2
T3 construct: (cDNA clone) CNR0200000
T3 sequence (P34972 whole entry): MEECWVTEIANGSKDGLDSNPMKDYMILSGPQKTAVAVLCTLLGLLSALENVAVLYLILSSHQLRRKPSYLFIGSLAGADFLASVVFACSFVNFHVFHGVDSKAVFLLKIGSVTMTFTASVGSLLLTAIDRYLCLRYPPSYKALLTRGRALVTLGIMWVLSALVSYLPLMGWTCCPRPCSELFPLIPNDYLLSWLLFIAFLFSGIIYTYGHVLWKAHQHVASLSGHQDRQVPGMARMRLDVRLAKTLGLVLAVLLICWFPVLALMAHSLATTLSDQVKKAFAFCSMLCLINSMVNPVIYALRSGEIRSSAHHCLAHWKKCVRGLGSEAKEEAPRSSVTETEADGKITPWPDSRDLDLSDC
Procedure: Membranes were isolated from transfected cells as follows. Monolayers of cultured cells were washed twice with phosphate-buffered saline (PBS). […] Homogenates were centrifuged 10 minutes at 1000×g at 4° C. The supernatant was collected and was centrifuged for 1 hour at 40,000×g. The supernatant was then decanted and the resulting pellet was re-suspended in 20 mM HEPES, pH 7.4, 5 mM MgCl2, 1 mM EDTA, 10% sucrose with complete cocktail protease inhibitors. Protein concentration of membrane suspensions were measured by Bradford Protein Assay using bovine serum albumin as the standard (BioRad catalog #500-0006). Protein concentrations of membrane suspensions were adjusted with the final buffer in the range of 5 to 10 mg/mL and were stored at −80° C. until further use.
A rapid filtration technique using Millipore FB filter plates (Catalog #MADVNOB) and filtration apparatus (Millipore system Catalog MAVM0960R) with vacuum aspiration was used to harvest and rinse labeled membranes (8 times with 0.2 mL of chilled binding buffer). […] Binding data were analyzed using GraphPad Prism (GraphPad Software, Inc. San Diego, Calif.).

[4] = biological target: T4, recombinant human cannabinoid receptor CB1 (Homo sapiens, UniProt P21554); test: Cannabinoid receptor radioligand binding assay, [3H]-CP 55,940 displacement, hCB1
T4 construct: (cDNA clone) CNR01L000
T4 sequence (P21554 whole entry): as the sequence (P21554 whole entry) above
From the text: as §2
Membranes were isolated from transfected cells as follows. Monolayers of cultured cells were washed twice with phosphate-buffered saline (PBS). Cells were scraped into 20 mM HEPES, pH 7.4, 10 mM EDTA containing complete cocktail protease inhibitors (Roche, Catalog #11 697 498 001) and were homogenized by an electric-powered mechanical probe homogenizer (Omni GLH; probe G7-195S) for 40 seconds at 7000 rpm. Homogenates were centrifuged 10 minutes at 1000×g at 4° C. The supernatant was collected and was centrifuged for 1 hour at 40,000×g. The supernatant was then decanted and the resulting pellet was re-suspended in 20 mM HEPES, pH 7.4, 5 mM MgCl2, 1 mM EDTA, 10% sucrose with complete cocktail protease inhibitors. Protein concentration of membrane suspensions were measured by Bradford Protein Assay using bovine serum albumin as the standard (BioRad catalog #500-0006). Protein concentrations of membrane suspensions were adjusted with the final buffer in the range of 5 to 10 mg/mL and were stored at −80° C. until further use.
Radioligand binding assays were performed by incubating membranes (2-10 μg protein) prepared from HEK-293 cells expressing recombinant human cannabinoid receptors, CB1 or CB2, at room temperature with 0.5 nM cannabinoid receptor agonist, [^3H]-CP 55,940 (Perkin Elmer, catalog #NET1051) in 0.2 mL of binding buffer (50 mM Tris-HCl, pH 7.5, 5 mM MgCl2, 2.5 mM EDTA) and 0.1% fatty acid free bovine serum albumin (Sigma Cat. #A0821) for 90 minutes. A rapid filtration technique using Millipore FB filter plates (Catalog #MADVNOB) and filtration apparatus (Millipore system Catalog MAVM0960R) with vacuum aspiration was used to harvest and rinse labeled membranes (8 times with 0.2 mL of chilled binding buffer). The radioactivity bound to the filters was counted with 0.05 mL of liquid scintillant (UltraGold MV, PerkinElmer catalog #6013159) in a scintillation counter (Perkin Elmer Microbeta instrument). Nonspecific binding was determined in the presence of unlabeled 1 μM CP 55,940 (Sigma Aldrich, catalog #C1112). Binding data were analyzed using GraphPad Prism (GraphPad Software, Inc. San Diego, Calif.).

[5] = displacement of 0.5 nM [3H]-CP 55,940, read-out: hCB2 IC50 (CP displ)
[6] = displacement of 0.5 nM [3H]-CP 55,940, read-out: hCB1 IC50 (CP displ)

T1 sequence (P34972 whole entry): as the sequence (P34972 whole entry) above

With `Cc1cc2cc(C(=O)c3cccc(Cl)c3Cl)sc2[nH]1` [Compound 2, (2,3-dichlorophenyl)(5-methyl-6H-thieno[2,3-b]pyrrol-2-yl)methanone] the EC50 [1] was 1 to 10 µM, the “hCB1 EC50 (cAMP ag, nM)” value [2] was “NS (NS means “Not Significant,” which means less than 30% agonist activity when compared to the positive control.)” and the IC50 [3, 5] was 1 to 10 µM. For the same molecule, the IC50 [4, 6] was > 10 µM.

`Cc1cc2cc(C(=O)c3cccnc3)sc2n1CCN1CCOCC1` [Compound 14, (5-Methyl-6-(2-morpholinoethyl)-6H-thieno[2,3-b]pyrrol-2-yl)(pyridin-3-yl)methanone] was tested, and the EC50 [1] was 0.1 to 1 µM, the “hCB1 EC50 (cAMP ag, nM)” value [2] was “NS (NS means “Not Significant,” which means less than 30% agonist activity when compared to the positive control.)” and the IC50 [3] was 1 to 10 µM. The IC50 [4] was > 10 µM.

For `Cc1cc2cc(C(=O)c3ccccn3)sc2n1CCN1CCOCC1` [Compound 16], the EC50 [1] was 0.1 to 1 µM, the “hCB1 EC50 (cAMP ag, nM)” value [2] was “NS (NS means “Not Significant,” which means less than 30% agonist activity when compared to the positive control.)” and the IC50 [3] was 1 to 10 µM. The IC50 [4] was > 10 µM.

`Cc1cc2cc(C(=O)c3cccc(Cl)c3Cl)sc2n1CC(=O)N1CCOCC1` [Compound 22, 2-(2-(2,3-Dichlorobenzoyl)-5-methyl-6H-thieno[2,3-b]pyrrol-6-yl)-1-morpholinoethanone] gave an EC50 [1] of 0.1 to 1 µM, an EC50 ([2]; read-out: hCB1 EC50 (cAMP ag)) of 0.1 to 1 µM and an IC50 [3] of 1 to 10 µM. For the same molecule, the IC50 [4] was > 10 µM.

`Cc1cc2cc(C(=O)c3ccncn3)sc2n1CCN1CCOCC1` [Compound 34, (5-Methyl-6-(2-morpholinoethyl)-6H-thieno[2,3-b]pyrrol-2-yl)(pyrimidin-4-yl)methanone] was tested, and the EC50 [1] was 1 to 10 µM, the “hCB1 EC50 (cAMP ag, nM)” value [2] was “NS (NS means “Not Significant,” which means less than 30% agonist activity when compared to the positive control.)” and the IC50 [3, 5] was > 10 µM. For the same molecule, the IC50 [4, 6] was > 10 µM.

For `Cc1cc2cc(C(=O)c3ccncc3)sc2n1CCN1CCOCC1` [Compound 40, (5-Methyl-6-(2-morpholinoethyl)-6H-thieno[2,3-b]pyrrol-2-yl)(pyridin-4-yl)methanone], the EC50 [1] was 0.1 to 1 µM, the “hCB1 EC50 (cAMP ag, nM)” value [2] was “NS (NS means “Not Significant,” which means less than 30% agonist activity when compared to the positive control.)” and the IC50 [3] was 1 to 10 µM. For the same molecule, the IC50 [4] was > 10 µM.

`COc1ccc(C(=O)c2cc3cc(C)n(CCC(=O)O)c3s2)cc1` [Compound 73, 3-(2-(4-Methoxybenzoyl)-5-methyl-6H-thieno[2,3-b]pyrrol-6-yl)propanoic acid] was tested, and the “hCB2 EC50 (cAMP ag, nM)” value [1] was “NS (NS means “Not Significant,” which means less than 30% agonist activity when compared to the positive control.)”, the “hCB1 EC50 (cAMP ag, nM)” value [2] was “NS (NS means “Not Significant,” which means less than 30% agonist activity when compared to the positive control.)” and the IC50 [3, 5] was > 10 µM. The IC50 [4, 6] was > 10 µM.

`CCS(=O)(=O)NCCCn1c(C)cc2cc(C(=O)c3ccc(OC)cc3)sc21` [Compound 74, N-(3-(2-(4-Methoxybenzoyl)-5-methyl-6H-thieno[2,3-b]pyrrol-6-yl)propyl)ethanesulfonamide] was tested, and the EC50 [1] was 0.1 to 1 µM, the “hCB1 EC50 (cAMP ag, nM)” value [2] was “NS (NS means “Not Significant,” which means less than 30% agonist activity when compared to the positive control.)” and the IC50 [3] was 1 to 10 µM. For the same molecule, the IC50 [4] was > 10 µM.

`COc1ccc(C(=O)c2cc3cc(C)[nH]c3s2)c(Cl)c1` [Compound 79, (2-Chloro-4-methoxyphenyl)(5-methyl-6H-thieno[2,3-b]pyrrol-2-yl)methanone] was tested, and the EC50 [1] was 0.1 to 1 µM, the “hCB1 EC50 (cAMP ag, nM)” value [2] was “NS (NS means “Not Significant,” which means less than 30% agonist activity when compared to the positive control.)” and the IC50 [3] was > 10 µM. The IC50 [4] was > 10 µM.

For `COc1ccc(C(=O)c2cc3cc(C)n(CCCNS(=O)(=O)c4ccccc4)c3s2)cc1` [Compound 81, N-(3-(2-(4-Methoxybenzoyl)-5-methyl-6H-thieno[2,3-b]pyrrol-6-yl)propyl)benzenesulfonamide], the “hCB2 EC50 (cAMP ag, nM)” value [1] was “NS (NS means “Not Significant,” which means less than 30% agonist activity when compared to the positive control.)”, the “hCB1 EC50 (cAMP ag, nM)” value [2] was “NS (NS means “Not Significant,” which means less than 30% agonist activity when compared to the positive control.)” and the IC50 [3, 5] was 1 to 10 µM. The IC50 [4, 6] was > 10 µM.

`COc1ccc(C(=O)c2cc3cc(C)n(CCN4CCOCC4=O)c3s2)cn1` [Compound 148, 4-(2-(2-(6-methoxynicotinoyl)-5-methyl-6H-thieno[2,3-b]pyrrol-6-yl)ethyl)morpholin-3-one] was tested, and the “hCB1 EC50 (cAMP ag, nM)” value [2] was “NS (NS means “Not Significant,” which means less than 30% agonist activity when compared to the positive control.)”, the IC50 [3, 5] was > 10 µM and the IC50 [4, 6] was > 10 µM.
